From patent US11384078B2, “5,6-fused-bicyclic compounds and compositions for the treatment of parasitic diseases” (NOVARTIS AG, priority 2017, dated 2022)

How the values were obtained:
Type in all cases: cell-based
[1] = test system: Leishmania donovani axenic amastigote; assay: In vitro assay for growth inhibition of Leishmania donovani axenic amastigote (Cell TiterGlo luminescence); settings: Leishmania donovani, L. donovani axenic amastigotes in vitro; read-out: L. donovani amastigotes EC50
How it was run: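 Compound-treated wells received 9600 axenic amastigotes in RPMI 1640-based medium at pH 5.5 (37 °C, 5% CO2). Growth measured as ATP luminescence (CellTiter-Glo) after 2-day incubation; DMSO and reference compounds served as controls.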

[2] = test system: L. donovani HU3 strain in mouse peritoneal macrophages; assay: Assay for inhibition of parasitemia of Leishmania donovani in mouse macrophages (SYBR Green nuclei count, high-content imaging); settings: Leishmania donovani, Peritoneal macrophage, L. donovani in mouse peritoneal macrophages; read-out: L. donovani in Mouse Macrophages EC50
How it was run: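 Parasite numbers were counted from SYBR Green-stained nuclei imaged by high-content microscopy after paraformaldehyde fixation and Triton permeabilization. Before this, compound was applied for 5 days at 37° C to BALB/c peritoneal macrophages (2×10^4/well) that had been exposed 24 h to 4×10^5 L. donovani HU3 amastigotes harvested from infected mouse spleens.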

[3] = test system: Trypanosoma cruzi amastigotes cultured in 3T3 fibroblast cells; assay: Assay for growth inhibition of kinetoplastid parasite Trypanosoma cruzi (beta-galactosidase Tulahuen strain, CPRG readout); settings: Trypanosoma cruzi, Fibroblast, T. cruzi amastigotes in 3T3 fibroblast cells; read-out: Buckner infectious T. cruzi EC50
How it was run: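 3T3 fibroblasts (1,000 cells/well) plated overnight, treated with compound in DMSO, then infected with 10,000 Lac-Z-expressing Tulahuen trypomastigotes. After 6 days, 0.6 mM CPRG with 0.6% NP-40 added for 2 h at room temperature; absorbance gives relative intracellular amastigote numbers. Benznidazole and nifurtimox serve as positive controls.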

[4] = test system: Trypanosoma brucei brucei (Lister 427) strain; assay: Assay for growth inhibition against Trypanosoma brucei brucei (Cell TiterGlo ATP luminescence); settings: Trypanosoma brucei, T. brucei brucei (Lister 427); read-out: T. Brucei (HAT) EC50
How it was run: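 Growth read-out is cellular ATP by CellTiter-Glo luminescence, measured 30 min after reagent addition, following 2-day incubation at 37 °C in CO2. Parasites (10,000/mL, HMI-9 plus 10% FBS and 10% serum plus) faced 10 threefold dilutions in duplicate; IC50 taken as 50% growth inhibition versus untreated.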

Row | Compound | EC50 [1] | EC50 [2] | EC50 [3] | EC50 [4]
1 | O=C(O)C1CCN(c2cnc3nn(-c4cc(NC(=O)N5CC(F)C5)ccc4F)cc3c2)CC1 [Compound 236, 1-(2-{2-fluoro-5-[(3-fluoroazetidine-1-carbonyl)amino]phenyl}-2H-pyrazolo[3,4-b]pyridin-5-yl)piperidine-4-carboxylic acid] | 264 nM | 29700 nM | 20000 nM | 1460 nM
2 | O=C(Nc1ccc(F)c(-n2cc3cc(N4CCN(CC(F)(F)F)CC4)cnc3n2)c1)N1CC(F)C1 [Compound 237, 3-fluoro-N-(4-fluoro-3-{5-[4-(2,2,2-trifluoroethyl)piperazin-1-yl]-2H-pyrazolo[3,4-b]pyridin-2-yl}phenyl)azetidine-1-carboxamide] | 16 nM | 9 nM | 21 nM | 5 nM
3 | O=C(Nc1ccc(F)c(-n2cc3cc(N4CCC(C5COC5)CC4)cnc3n2)c1)N1CC(F)C1 [Compound 238, 3-fluoro-N-(4-fluoro-3-{5-[4-(oxetan-3-yl)piperidin-1-yl]-2H-pyrazolo[3,4-b]pyridin-2-yl}phenyl)azetidine-1-carboxamide] | 25 nM | 32 nM | 33 nM | 5 nM
4 | O=C(Nc1ccc(F)c(-n2cc3cc(N4CC5(CSC5)C4)cnc3n2)c1)N1CC(F)C1 [Compound 239, 3-fluoro-N-[4-fluoro-3-(5-{2-thia-6-azaspiro[3.3]heptan-6-yl}-2H-pyrazolo[3,4-b]pyridin-2-yl)phenyl}azetidine-1-carboxamide] | 1760 nM | 9 nM | 10 nM | 5 nM
5 | O=C(Nc1ccc(F)c(-n2cc3cc(N4CC5CC(C4)O5)cnc3n2)c1)N1CC(F)C1 [Compound 240, 3-fluoro-N-[4-fluoro-3-(5-{6-oxa-3-azabicyclo[3.1.1]heptan-3-yl}-2H-pyrazolo[3,4-b]pyridin-2-yl)phenyl}azetidine-1-carboxamide] | 579 nM | 27 nM | 21 nM | 5 nM
6 | O=C(Nc1ccc(F)c(-n2cc3cc(N4CCC5(CC5)C4)cnc3n2)c1)N1CC(F)C1 [Compound 241, N-[3-(5-{5-azaspiro[2.4]heptan-5-yl}-2H-pyrazolo[3,4-b]pyridin-2-yl)-4-fluorophenyl}-3-fluoroazetidine-1-carboxamide] | 1190 nM | 6 nM | 3 nM | 5 nM
7 | O=C(Nc1ccc(F)c(-n2cc3cc(N4CCC5(CC5)C4)cnc3n2)c1)N1CCC2(CC2)C1 [Compound 242, N-[3-(5-{5-azaspiro[2.4]heptan-5-yl}-2H-pyrazolo[3,4-b]pyridin-2-yl)-4-fluorophenyl}-5-azaspiro[2.4]heptane-5-carboxamide] | 1970 nM | 106 nM | 7 nM | 13 nM
8 | O=C(Nc1ccc(F)c(-n2cc3cc(N4CC5(CCC5)C4)cnc3n2)c1)N1CC(F)C1 [Compound 243, N-[3-(5-{2-azaspiro[3.3]heptan-2-yl}-2H-pyrazolo[3,4-b]pyridin-2-yl)-4-fluorophenyl}-3-fluoroazetidine-1-carboxamide] | 2100 nM | 65 nM | 82 nM | 5 nM
9 | O=C(Nc1ccc(F)c(-n2cc3cc(N4CCC5(CCOCC5)C4)cnc3n2)c1)N1CC(F)C1 [Compound 244, 3-fluoro-N-[4-fluoro-3-(5-{8-oxa-2-azaspiro[4.5]decan-2-yl}-2H-pyrazolo[3,4-b]pyridin-2-yl)phenyl}azetidine-1-carboxamide] | 550 nM | 21 nM | 14 nM | 5 nM
10 | O=C1CCC2(CN(c3cnc4nn(-c5cc(NC(=O)N6CC(F)C6)ccc5F)cc4c3)C2)N1 [Compound 245, 3-fluoro-N-[4-fluoro-3-(5-{6-oxo-2,5-diazaspiro[3.4]octan-2-yl}-2H-pyrazolo[3,4-b]pyridin-2-yl)phenyl}azetidine-1-carboxamide] | 311 nM | 1490 nM | 951 nM | 62 nM
11 | O=C(Nc1ccc(F)c(-n2cc3cc(N4CC5(CCOC5)C4)cnc3n2)c1)N1CC2(CCOC2)C1 [Compound 246, N-[4-fluoro-3-(5-{6-oxa-2-azaspiro[3.4]octan-2-yl}-2H-pyrazolo[3,4-b]pyridin-2-yl)phenyl}-6-oxa-2-azaspiro[3.4]octane-2-carboxamide] | 535 nM | 379 nM | 2840 nM | 396 nM
12 | CC(C)(C)OC(=O)N1CCCC1c1cnc2nn(-c3cc(NC(=O)N4CCC4)ccc3F)cc2c1 (centres unmarked) [Compound 247, tert-butyl 2-(2-{5-[(azetidine-1-carbonyl)amino]-2-fluorophenyl}-2H-pyrazolo[3,4-b]pyridin-5-yl)pyrrolidine-1-carboxylate] | 40 nM | 23 nM | 14 nM | 5 nM
13 | O=C(Nc1ccc(F)c(-n2cc3cc(N4CCC5(CC4)COC5)cnc3n2)c1)N1CC(F)C1 [Compound 248, 3-fluoro-N-[4-fluoro-3-(5-{2-oxa-7-azaspiro[3.5]nonan-7-yl}-2H-pyrazolo[3,4-b]pyridin-2-yl)phenyl]azetidine-1-carboxamide] | 117 nM | 8 nM | 11 nM | 5 nM
14 | O=C(Nc1ccc(F)c(-n2cc3cc(NC4CC4)cnc3n2)c1)N1CC(F)C1 [Compound 249, N-{3-[5-(cyclopropylamino)-2H-pyrazolo[3,4-b]pyridin-2-yl]-4-fluorophenyl}-3-fluoroazetidine-1-carboxamide] | 864 nM | 125 nM | 110 nM | 5 nM
15 | O=C(Nc1ccc(F)c(-n2cc3cc(N4CCN(CC(F)(F)F)CC4)cnc3n2)c1)N1CCC1 [Compound 250, N-(4-fluoro-3-{5-[4-(2,2,2-trifluoroethyl)piperazin-1-yl]-2H-pyrazolo[3,4-b]pyridin-2-yl}phenyl)azetidine-1-carboxamide] | 43 nM | 10 nM | 1 nM | 5 nM
16 | O=C(Nc1ccc(F)c(-n2cc3cc(Br)cnc3n2)c1)N1CC2(CC2)C1 [Compound 254, N-(3-(5-bromo-2H-pyrazolo[3,4-b]pyridin-2-yl)-4-fluorophenyl)-5-azaspiro[2.3]hexane-5-carboxamide] | 91 nM | 673 nM | 50 nM | 259 nM
17 | CC1(C)CN(c2cnc3nn(-c4cc(NC(=O)N5CC(F)C5)ccc4F)cc3c2)C1 [Compound 255, N-{3-[5-(3,3-dimethylazetidin-1-yl)-2H-pyrazolo[3,4-b]pyridin-2-yl]-4-fluorophenyl}-3-fluoroazetidine-1-carboxamide] | 42 nM | 28 nM | 15 nM | 5 nM
18 | O=C(Nc1ccc(F)c(-n2cc3cc(N4CC5(CC5)C4)cnc3n2)c1)N1CCC1 [Compound 257, N-(3-(5-(5-azaspiro[2.3]hexan-5-yl)-2H-pyrazolo[3,4-b]pyridin-2-yl)-4-fluorophenyl)azetidine-1-carboxamide] | 14 nM | 7 nM | 2 nM | 4 nM
19 | O=C(Nc1ccc(F)c(-n2cc3cc(N4CC5(CC5)C4)cnc3n2)c1)N1CC(F)(F)C1 [Compound 258, N-[3-(5-{5-azaspiro[2.3]hexan-5-yl}-2H-pyrazolo[3,4-b]pyridin-2-yl)-4-fluorophenyl}-3,3-difluoroazetidine-1-carboxamide] | 23 nM | 39 nM | 12 nM | 28 nM
20 | O=C(Nc1ccc(F)c(-n2cc3cc(N4CC5(CC5)C4)cnc3n2)c1)N1CC[C@@H](F)C1 [Compound 259, (3R)-N-[3-(5-{5-azaspiro[2.3]hexan-5-yl}-2H-pyrazolo[3,4-b]pyridin-2-yl)-4-fluorophenyl}-3-fluoropyrrolidine-1-carboxamide] | 12 nM | 16 nM | 3 nM | 4 nM
21 | CN(C)c1cnc2nn(-c3cc(NC(=O)N4CC5(CC5)C4)ccc3F)cc2c1 [Compound 260, N-{3-[5-(dimethylamino)-2H-pyrazolo[3,4-b]pyridin-2-yl]-4-fluorophenyl}-5-azaspiro[2.3]hexane-5-carboxamide] | 221 nM | 224 nM | 49 nM | 43 nM
22 | O=C(Nc1ccc(F)c(-n2cc3cc(N4C5COCC4C5)cnc3n2)c1)N1CC(F)C1 [Compound 263, 3-fluoro-N-[4-fluoro-3-(5-{3-oxa-6-azabicyclo[3.1.1]heptan-6-yl}-2H-pyrazolo[3,4-b]pyridin-2-yl)phenyl]azetidine-1-carboxamide] | 12 nM | 68 nM | 45 nM | 10 nM
23 | O=C(Nc1ccc(F)c(-n2cc3cc(C4CCN4)cnc3n2)c1)N1CC(F)C1 (centres unmarked) [Compound 264, N-{3-[5-(azetidin-2-yl)-2H-pyrazolo[3,4-b]pyridin-2-yl]-4-fluorophenyl}-3-fluoroazetidine-1-carboxamide] | 357 nM | 13700 nM | 480 nM | 384 nM
